Reference: patent publication US12109231B2 (Neuvivo, Inc., priority 2015, dated 2024)
Read-outs that look alike come from different tables or passages of the source.

Legend:
patient with depression = system: patient with depression
From the text: (§1) Plasma/serum samples are obtained and submitted to a lab-based immunoassay to quantify inflammatory markers in the plasma/serum sample. Inflammatory markers are compared to the patient's pre-treatment levels of plasma/serum inflammatory markers.

[1] = system: patient with schizophrenia
From the text: as §1

[2] = system: patient with posttraumatic stress disorder
From the text: as §1

[3] = system: patient with bipolar disorder
From the text: as §1

patient with autism = system: patient with autism
From the text: as §1

[4] = system: G93A SOD-1 mt. mouse model of ALS; details: SOD-1 mutant mice, 2 mg/kg intravenously every three weeks
Procedure: Chlorite composition administration and survival studies have been done in G93A SOD-1 mt. mouse model of ALS. In this model, the SOD-1 mutant mice begin developing degeneration of neurologic function starting at approximately 70 days of age. The mice were dosed with chlorite composition at 2 mg/kg intravenously every three weeks with neuroscore and survival information being collected weekly.

LPS = details: Phase 2, responders positive for LPS at baseline
From the text: (§2) These clinical data provided compelling rationale to test […] in pre-clinical models of Parkinson's disease to investigate its brain penetrance, ability to modulate microglia activation and peripheral immune cell infiltration to the CNS, and protect vulnerable neuronal populations from synuclein-induced degeneration.

ALS patients = system: ALS patients
From the text: as §2

IL-18 = details: Phase 2, responders with elevated IL-18 at baseline
From the text: as §2

[5] = system: monocyte/macrophage activation; details: in vivo
markers of inflammation = details: ALS patients, after a single dose
[6] = system: monocyte/macrophage activation; details: in vitro

**Q.** Which “behavioral and/or neurophysical symptoms of depression” value (patient with depression; after weekly injection) does the source give for sodium chlorite here?
**A.** found to be reduced

**Q.** What about the “levels of plasma/serum inflammatory markers after treatment” value (patient with depression; depression, vs pre-treatment levels) of the same substance?
**A.** reduced

**Q.** What about the “behavioral and/or neurophysical symptoms of schizophrenia” value ([1]; after weekly injection) of the same substance?
**A.** found to be reduced

**Q.** What about the “levels of plasma/serum inflammatory markers after treatment” value ([1]; schizophrenia, vs pre-treatment levels) of the same substance?
**A.** reduced

**Q.** And the “behavioral and/or neurophysical symptoms of posttraumatic stress disorder” value ([2]; after weekly injection)?
**A.** found to be reduced

**Q.** And the “levels of plasma/serum inflammatory markers after treatment” value ([2]; posttraumatic stress disorder, vs pre-treatment levels)?
**A.** reduced

**Q.** What about the “behavioral and/or neurophysical symptoms of bipolar disorder” value ([3]; after weekly injection) of the same substance?
**A.** found to be reduced

**Q.** And the “levels of plasma/serum inflammatory markers after treatment” value ([3]; bipolar disorder, vs pre-treatment levels)?
**A.** reduced

**Q.** What about the “behavioral and/or neurophysical symptoms of autism” value (patient with autism; after weekly injection) of the same substance?
**A.** found to be reduced

**Q.** And the “levels of plasma/serum inflammatory markers after treatment” value (patient with autism; autism, vs pre-treatment levels)?
**A.** reduced

**Q.** What about the “survival compared with sham treated animals” value [4] of the same substance?
**A.** almost three weeks longer

**Q.** And the “neurologic degeneration (neuroscore)” value ([4]; vs sham)?
**A.** delayed by a similar time

**Q.** And the “reduction of the difference between ALS and normal control level of monocyte CD16 expression toward the normal value” (monocyte CD16; 24 hours after one dose, compared with baseline pretreatment levels)?
**A.** approximately 50%

**Q.** And the “level of CD16 expression on the CD16 bright subset of monocytes” value (monocyte CD16; chlorite treated patients compared to placebo)?
**A.** Dose-dependent changes

**Q.** And the “LPS in responders following treatment” value (LPS)?
**A.** decreased following treatment

**Q.** What about the “symptom progression in a subset of patients” value (ALS patients; Phase 2) of the same substance?
**A.** may have dose-dependently halted symptom progression

**Q.** What about the “slower rate of progression than placebo patients” value (ALS patients; Phase 2, 2 mg/kg, patients above the median wr-CRP, six months of study) of the same substance?
**A.** 44%

**Q.** And the “dose dependence of disease progression in patients with above the median wr-CRP value” (ALS patients; Phase 2, baseline wr-CRP above 1125 ng/ml)?
**A.** dose dependent slowing of disease progression

**Q.** What about the “patients who did not progress / stopped progressing” value (ALS patients; Phase 2, high dose (2 mg/kg), six months of treatment) of the same substance?
**A.** 25%

**Q.** What about the “number of non-progressing patients relative to placebo” value (ALS patients; Phase 2, high dose, six months of treatment) of the same substance?
**A.** More than 2 times

**Q.** What about the “progression in patients with greater inflammation (higher CRP)” value (ALS patients; Phase 2, high-dose group) of the same substance?
**A.** slowing of progression was observed

**Q.** What about the “IL-18 in responders following treatment” value (IL-18) of the same substance?
**A.** decreased following treatment

**Q.** And the “markers of monocyte/macrophage activation” value [5]?
**A.** reversed

**Q.** What about the markers of inflammation (markers of inflammation) of the same substance?
**A.** decrease markers of inflammation

**Q.** What about the “markers of monocyte/macrophage activation” value [6] of the same substance?
**A.** reversed
